From ChEMBL document CHEMBL3217615, “Novel 3,5-bis(arylidiene)-4-piperidone based monocarbonyl analogs of curcumin: anticancer activity evaluation and mode of action study” (2014)

What was measured:
Assay type in all cases: functional
[1] = tested on: HL-60(TB); assay: Growth inhibition of human HL-60(TB) cells after 48 hrs by sulforhodamine B assay; conditions: HL-60, 48 h; for CC50: read-out: LC50 (the source's name)
[2] = tested on: K562; assay: Growth inhibition of human K562 cells assessed as cell growth at 10^-8 M after 48 hrs by sulforhodamine B assay; conditions: K562, 48 h; for growth at 0.01 µM: read-out: Activity; for CC50: read-out: pLC50 (the source's name) (converted); for TGI: read-out: pTGI (converted)
[3] = tested on: SK-OV-3; assay: Growth inhibition of human SKOV3 cells assessed as cell growth at 10^-4 M after 48 hrs by sulforhodamine B assay; conditions: SK-OV-3, 48 h, read-out: Activity
[4] = Growth inhibition of human UO31 cells assessed as cell growth at 10^-6 M after 48 hrs by sulforhodamine B assay; conditions: UO-31, 48 h, read-out: Activity
[5] = Growth inhibition of human HCT15 cells assessed as cell growth at 10^-7 M after 48 hrs by sulforhodamine B assay; conditions: HCT-15, 48 h, read-out: Activity
[6] = tested on: A498; assay: Growth inhibition of human A498 cells assessed as cell growth at 10^-8 M after 48 hrs by sulforhodamine B assay; conditions: A498, 48 h; for growth at 0.01 µM: read-out: Activity; for TGI: read-out: pTGI (converted)
[7] = Growth inhibition of human HOP92 cells assessed as cell growth at 10^-4 M after 48 hrs by sulforhodamine B assay; conditions: HOP-92, 48 h, read-out: Activity
[8] = tested on: 786-0; assay: Growth inhibition of human 786-0 cells assessed as cell growth at 10^-6 M after 48 hrs by sulforhodamine B assay; conditions: 786-0, 48 h, read-out: Activity
[9] = Growth inhibition of human LOXIMVI cells assessed as cell growth at 10^-6 M after 48 hrs by sulforhodamine B assay; conditions: LOX IMVI, read-out: Activity
[10] = tested on: MDA-MB-231; assay: Growth inhibition of human MDA-MB-231 cells assessed as cell growth at 10^-4 M after 48 hrs by sulforhodamine B assay; conditions: MDA-MB-231, 48 h, read-out: Activity
[11] = tested on: SK-MEL-2; assay: Growth inhibition of human SK-MEL-2 cells after 48 hrs by sulforhodamine B assay; conditions: SK-MEL-2, 48 h; for CC50: read-out: LC50 (the source's name)
[12] = Growth inhibition of human OVCAR8 cells assessed as cell growth at 10^-7 M after 48 hrs by sulforhodamine B assay; conditions: OVCAR-8, 48 h, read-out: Activity
[13] = tested on: A498; assay: Growth inhibition of human A498 cells after 48 hrs by sulforhodamine B assay; conditions: A498, 48 h; for CC50: read-out: LC50 (the source's name)
[14] = tested on: K562; assay: Growth inhibition of human K562 cells assessed as cell growth at 10^-6 M after 48 hrs by sulforhodamine B assay; conditions: K562, 48 h, read-out: Activity
[15] = tested on: HL-60(TB); assay: Growth inhibition of human HL-60(TB) cells assessed as cell growth at 10^-8 M after 48 hrs by sulforhodamine B assay; conditions: HL-60, 48 h; for growth at 0.01 µM: read-out: Activity; for CC50: read-out: pLC50 (the source's name) (converted); for TGI: read-out: pTGI (converted)
[16] = tested on: U-251; assay: Growth inhibition of human U251 cells assessed as cell growth at 10^-4 M after 48 hrs by sulforhodamine B assay; conditions: U-251, 48 h, read-out: Activity
[17] = tested on: DU-145; assay: Growth inhibition of human DU145 cells after 48 hrs by sulforhodamine B assay; conditions: DU-145, 48 h; for CC50: read-out: LC50 (the source's name)
[18] = tested on: T47D; assay: Growth inhibition of human T47D cells after 48 hrs by sulforhodamine B assay; conditions: for CC50: read-out: LC50 (the source's name)
[19] = tested on: KM12; assay: Growth inhibition of human KM12 cells assessed as cell growth at 10^-8 M after 48 hrs by sulforhodamine B assay; conditions: KM12, 48 h; for growth at 0.01 µM: read-out: Activity; for TGI: read-out: pTGI (converted)
[20] = tested on: MDA-MB-231; assay: Growth inhibition of human MDA-MB-231 cells assessed as cell growth at 10^-8 M after 48 hrs by sulforhodamine B assay; conditions: MDA-MB-231, 48 h; for growth at 0.01 µM: read-out: Activity; for TGI: read-out: pTGI (converted)
[21] = tested on: MDA-MB-231; assay: Growth inhibition of human MDA-MB-231 cells assessed as cell growth at 10^-7 M after 48 hrs by sulforhodamine B assay; conditions: MDA-MB-231, 48 h, read-out: Activity
[22] = Growth inhibition of human OVCAR3 cells assessed as cell growth at 10^-6 M after 48 hrs by sulforhodamine B assay; conditions: OVCAR-3, 48 h, read-out: Activity
[23] = tested on: Malme-3M; assay: Growth inhibition of human MALME-3M cells assessed as cell growth at 10^-8 M after 48 hrs by sulforhodamine B assay; conditions: for growth at 0.01 µM: read-out: Activity
[24] = tested on: SW-620; assay: Growth inhibition of human SW620 cells assessed as cell growth at 10^-6 M after 48 hrs by sulforhodamine B assay; conditions: SW-620, 48 h, read-out: Activity
[25] = tested on: M14; assay: Growth inhibition of human M14 cells after 48 hrs by sulforhodamine B assay; conditions: M14, 48 h; for CC50: read-out: LC50 (the source's name)
[26] = tested on: T47D; assay: Growth inhibition of human T47D cells assessed as cell growth at 10^-6 M after 48 hrs by sulforhodamine B assay; conditions: read-out: Activity
[27] = tested on: K562; assay: Growth inhibition of human K562 cells assessed as cell growth at 10^-4 M after 48 hrs by sulforhodamine B assay; conditions: K562, 48 h, read-out: Activity
[28] = Growth inhibition of human MOLT4 cells assessed as cell growth at 10^-7 M after 48 hrs by sulforhodamine B assay; conditions: MOLT-4, 48 h, read-out: Activity
[29] = tested on: SN12C; assay: Growth inhibition of human SN12C cells after 48 hrs by sulforhodamine B assay; conditions: for CC50: read-out: LC50 (the source's name)
[30] = tested on: MDA-MB-231; assay: Growth inhibition of human MDA-MB-231 cells assessed as cell growth at 10^-6 M after 48 hrs by sulforhodamine B assay; conditions: MDA-MB-231, 48 h, read-out: Activity
[31] = tested on: SNB-75; assay: Growth inhibition of human SNB75 cells assessed as cell growth at 10^-7 M after 48 hrs by sulforhodamine B assay; conditions: SNB-75, 48 h, read-out: Activity
[32] = tested on: HL-60(TB); assay: Growth inhibition of human HL-60(TB) cells assessed as cell growth at 10^-4 M after 48 hrs by sulforhodamine B assay; conditions: HL-60, 48 h, read-out: Activity
[33] = tested on: 786-0; assay: Growth inhibition of human 786-0 cells after 48 hrs by sulforhodamine B assay; conditions: 786-0, 48 h; for CC50: read-out: LC50 (the source's name)
[34] = tested on: COLO 205; assay: Growth inhibition of human COLO205 cells assessed as cell growth at 10^-4 M after 48 hrs by sulforhodamine B assay; conditions: COLO 205, 48 h, read-out: Activity

O=C1/C(=C/c2ccc(Cl)cc2Cl)CN(S(=O)(=O)c2ccccc2)C/C1=C\c1ccc(Cl)cc1Cl
GI50 [1]: 562 nM | TGI [1]: 3970 nM | CC50 [1]: > 100000 nM | GI50 [2]: 347 nM | growth at 0.01 µM [2]: 102% | CC50 [2]: > 100000 nM | TGI [2]: > 100000 nM | growth at 100 µM [3]: 24% | growth at 1 µM [4]: -22% | growth at 0.1 µM [5]: 90% | GI50 [6]: 724 nM | LC50 [6]: > 100000 nM | growth at 0.01 µM [6]: 67% | TGI [6]: 4370 nM | growth at 100 µM [7]: -20% | growth at 1 µM [8]: -37% | growth at 1 µM [9]: -37% | growth at 100 µM [10]: -49% | GI50 [11]: 6010 nM | TGI [11]: > 100000 nM | CC50 [11]: > 100000 nM | growth at 0.1 µM [12]: 94% | GI50 [13]: 727 nM | TGI [13]: 4390 nM | CC50 [13]: > 100000 nM | growth at 1 µM [14]: 8% | GI50 [15]: 562 nM | growth at 0.01 µM [15]: 97% | CC50 [15]: > 100000 nM | TGI [15]: 3980 nM | growth at 100 µM [16]: -63% | GI50 [17]: 446 nM | TGI [17]: 18800 nM | CC50 [17]: > 100000 nM | GI50 [18]: 1280 nM | TGI [18]: 100000 nM | CC50 [18]: > 100000 nM | GI50 [19]: 257 nM | LC50 [19]: 25700 nM | growth at 0.01 µM [19]: 100% | TGI [19]: 603 nM | GI50 [20]: 468 nM | growth at 0.01 µM [20]: 102% | TGI [20]: 2140 nM | growth at 0.1 µM [21]: 99% | growth at 1 µM [22]: -10% | GI50 [23]: 3240 nM | LC50 [23]: > 100000 nM | growth at 0.01 µM [23]: 118% | growth at 1 µM [24]: 4% | GI50 [25]: 3660 nM | TGI [25]: > 100000 nM | CC50 [25]: > 100000 nM | growth at 1 µM [26]: 55% | growth at 100 µM [27]: 3% | growth at 0.1 µM [28]: 106% | GI50 [29]: 245 nM | TGI [29]: 718 nM | CC50 [29]: > 100000 nM | growth at 1 µM [30]: 26% | growth at 0.1 µM [31]: 71% | growth at 100 µM [32]: -13% | GI50 [33]: 241 nM | TGI [33]: 544 nM | CC50 [33]: 1710 nM | growth at 100 µM [34]: -25%

Cc1ccc(S(=O)(=O)N2C/C(=C\c3cc(F)cc(F)c3)C(=O)/C(=C/c3cc(F)cc(F)c3)C2)cc1
GI50 [1]: 289 nM | TGI [1]: 1740 nM | CC50 [1]: > 100000 nM | GI50 [2]: 77.6 nM | growth at 0.01 µM [2]: 94% | CC50 [2]: > 100000 nM | TGI [2]: 1380 nM | growth at 100 µM [3]: -68% | growth at 1 µM [4]: 55% | growth at 0.1 µM [5]: 80% | GI50 [6]: 1860 nM | LC50 [6]: 8710 nM | growth at 0.01 µM [6]: 96% | TGI [6]: 4070 nM | growth at 100 µM [7]: -58% | growth at 1 µM [8]: 34% | growth at 1 µM [9]: -82% | growth at 100 µM [10]: -82% | GI50 [11]: 1970 nM | TGI [11]: 4660 nM | CC50 [11]: 14800 nM | growth at 0.1 µM [12]: 82% | GI50 [13]: 1880 nM | TGI [13]: 4050 nM | CC50 [13]: 8760 nM | growth at 1 µM [14]: 3% | GI50 [15]: 288 nM | growth at 0.01 µM [15]: 116% | CC50 [15]: > 100000 nM | TGI [15]: 1740 nM | growth at 100 µM [16]: -96% | GI50 [17]: 1240 nM | TGI [17]: 3080 nM | CC50 [17]: 7620 nM | GI50 [18]: 1790 nM | TGI [18]: 6090 nM | CC50 [18]: 54300 nM | GI50 [19]: 324 nM | LC50 [19]: 4070 nM | growth at 0.01 µM [19]: 106% | TGI [19]: 1000 nM | GI50 [20]: 269 nM | LC50 [20]: 8510 nM | growth at 0.01 µM [20]: 98% | TGI [20]: 776 nM | growth at 0.1 µM [21]: 97% | growth at 1 µM [22]: 16% | GI50 [23]: 275 nM | LC50 [23]: 3800 nM | growth at 0.01 µM [23]: 97% | TGI ([23]; read-out: pTGI (converted)): 741 nM | growth at 1 µM [24]: -45% | GI50 [25]: 359 nM | TGI [25]: 1400 nM | CC50 [25]: 5910 nM | growth at 1 µM [26]: 74% | growth at 100 µM [27]: -41% | growth at 0.1 µM [28]: 88% | GI50 [29]: 342 nM | TGI [29]: 1310 nM | CC50 [29]: 4260 nM | growth at 1 µM [30]: -11% | growth at 0.1 µM [31]: 90% | growth at 100 µM [32]: -23% | GI50 [33]: 587 nM | TGI [33]: 1910 nM | CC50 [33]: 4950 nM | growth at 100 µM [34]: -95%
